Like-named read-outs stand apart in the source and are kept apart here.
What was measured:
[1] = test system: GL-261-luc mouse glioblastoma cell line; assay: Cell death, trypan blue, GL-261; settings: 5-50 μM, 96 h
Method: (§1) The percentage of cell death was calculated at 96-hour time point for all experimental conditions.

[2] = test system: LN-229 human glioblastoma cells; settings: for % cell death: 72-/96-hour time points
[3] = test system: mitochondrial respiration and glycolysis in LN-229 human glioblastoma cells; assay: Metabolic parameters, Extracellular Flux Analyzer (OCR/ECAR); type: cell-based; settings: 25 μM, LN229
Method: Metabolic responses of LN-229 human glioblastoma cells were evaluated with Extracellular Flux Analyzer XF24 (Seahorse Biosciences, North Billerica, Mass.). Prior each assay the cells were plated at 4×10^4 cells/well in 24-well plates in growth supporting media. At the time of measurement, growth media were replaced with serum-free XF medium (Seahorse) in cartridges equipped with oxygen-sensitive and pH-sensitive fluorescent probes. The oxygen consumption rate (OCR; indicative of mitochondrial respiration) and acidification rate (ECAR; indicative of glycolysis) were evaluated after injecting the following metabolic toxins: oligomycin, FCCP; rotenone; and antimycin A. Immediate metabolic effects were determined by comparing OCR and ECAR values in cells pre-incubated with DMSO (vehicle), or with PP1 and FF, all used at 25 μM. A: Representative experiment in which real OCR (pmol/min) and ECAR (mpH/min) values are shown. Other relevant metabolic parameters calculated from this experiment include ATP production, Spare Respiratory Capacity, basal OCR levels and proton leak. B: Average OCR and ECAR data (% change over basal OCR and ECAR values) from three independent experiments repeated 5 times (n=15).
Evaluation of metabolic parameters—Metabolic responses of human glioblastoma cells were evaluated with Extracellular Flux Analyzer XFe24 (Agilent Technologies). […]

[4] = test system: GBM12 patient-derived human glioblastoma cells; assay: Cell death, trypan blue, GBM12; settings: 5-50 μM, 96 h
Method: as §1

[5] = test system: PPAR responsive elements (PPRE); assay: PPAR luciferase assay (PPRE reporter) in HepG2 cells; type: cell-based; settings: 25 μM, 24 hrs
Method: Aliquots of 50 μM PP1 and FF in DMSO were added to 500 μl to heparinized human blood to a final concentration of 50 μM. Following incubation at 37° C. for the indicated time points, the samples were frozen at −80° C., and later prepared for HPLC-based detection of the compounds. Please note that FF is converted to FA in the presence of human blood. […] Data represent average values with standard deviation (n=3). panel B: Water solubility. FF and PP1, were added to water to a final concentration of 50 mM and sonicated in an ultrasonic bath (Branson 1510 Digital Heated Ultrasonic bath) for one hour at room temperature. The samples were then centrifuged for 10 minutes at 16000×g, and the supernatant filtered through 0.45 μm syringe filter. Water solubilized PP1 and FF were subsequently processed for HPLC analysis (see Methods). Data represent average values with standard deviation (n=3). panel C: Effects of PP compounds on PPAR responsive elements (PPRE). The PPAR transcriptional activity was determined in HepG2 cells by the JsTkpGL3 reporter plasmid, which contains a firefly luciferase gene driven by the PPRE, which consists of three copies of the J site from the apo-AII gene promoter. To normalize for efficiency of transfection the cells were additionally transfected with the pSV40-GLuc (New England Biolabs, Ipswich, Mass.) control plasmid. […] The luciferase activity was detected with Dual-Luciferase reporter assay system (Promega, Madison, Wis.), and the resulting luminescence measured with Synergy 2 microplate reader (BioTek, Winooski, Vt.). Data represent average values with standard deviation (n=6).
PPAR Luciferase Assay—The PPAR transcriptional activity was determined by utilizing the JsTkpGL3 reporter plasmid, which contains a firefly luciferase gene driven by the PPAR responsive element (PPRE), which consists of three copies of the J site from the apo-AII gene promoter. Together with JsTkpGL3 plasmid HepG2 cells were transfected with pSV40-GLuc (New England Biolabs, Ipswich, Mass.) control plasmid expressing Gaussia luciferase under the control of the constitutive SV40 early promoter to normalize for efficiency of transfection. […] The luciferase activity was detected with Dual-Luciferase reporter assay system (Promega, Madison, Wis.), and the resulting luminescence measured with Synergy 2 microplate reader (BioTek, Winooski, Vt.).

[6] = test system: LN229 human glioblastoma cell line; assay: Cell viability (MTT assay), LN229; type: cell-based; settings: MTT

CN(CCO)C(=O)C(C)(C)Oc1ccc(C(=O)c2ccc(Cl)cc2)cc1 [PP1, 2-[4-(4-chlorobenzoyl)phenoxy]-N-(2-hydroxyethyl)-N,2-dimethylpropanamide]
in vitro cytotoxicity [1]: high in vitro cytotoxicity | % cell death ([2]; 5 μM): 74+/−3% | % cell death ([2]; 10 μM): 92+/−2% | cell death ([2]; 25 and 50 μM, 72- and 96-hour time points): extensive cell death | concentration triggering extensive glioblastoma cell death, fold lower than FF ([2]; in vitro): ~5 fold | extracellular acidification rate (ECAR) [3]: corresponding increases in ECAR | oxygen consumption rate (OCR) [3]: dramatic decrease of OCR values | in vitro cytotoxicity [4]: high in vitro cytotoxicity | effect on PPAR responsive elements (PPRE) [5]: attenuate | CV = Cell viability (% of control) ([6]; 1 μM): 98.36±1.61 % of control | CV = Cell viability (% of control) ([6]; 5 μM): 70.03±2.04 % of control | CV = Cell viability (% of control) ([6]; 10 μM): 43.67±1.88 % of control

Reference: patent US20220304957A1, “ANTI-CANCER COMPOSITIONS AND METHODS OF USE” (Board of Supervisors of Louisiana State University and …, priority 2019, published 2022)
